Publication PMC4007584 (Journal of biomolecular screening, 2013)
Where a name gives a salt, the structure may show the parent alone.

Legend:
[1] = molecular target: catalytic domain of PDE10A2 (Homo sapiens, UniProt Q9Y233); experiment: PDE10A calorimetric activity assay; assay type: biochemical
[2] = system: R6/2 mice; conditions: IP beginning at 4 weeks of age; cited from earlier work
[3] = system: PDE10A; conditions: literature; cited from earlier work

catalytic domain of PDE10A2, sequence (Q9Y233 715-1055 limits assumed): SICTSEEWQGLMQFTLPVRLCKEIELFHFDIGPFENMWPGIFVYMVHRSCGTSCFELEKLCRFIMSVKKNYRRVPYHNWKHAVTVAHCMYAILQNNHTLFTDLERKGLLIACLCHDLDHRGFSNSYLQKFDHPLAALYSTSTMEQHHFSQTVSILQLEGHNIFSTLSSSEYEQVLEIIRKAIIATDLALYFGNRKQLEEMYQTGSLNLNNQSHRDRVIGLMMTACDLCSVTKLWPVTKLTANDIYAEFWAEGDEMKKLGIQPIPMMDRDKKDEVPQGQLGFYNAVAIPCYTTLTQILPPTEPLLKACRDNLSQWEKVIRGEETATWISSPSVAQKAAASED

SMILES | Ki [1] [µM] | inhibition mechanism, PDE10A [1] | reduction of the loss of striatal size [2] [%] | Ligand Efficiency PDE10A ([1]; Table 1, from enthalpy array KI) [kcal mol^−1 HA^−1] | IC50 [3] [µM]
CC(=O)CCCCn1c(=O)c2c(ncn2C)n(C)c1=O [Pentoxifylline, pentoxifylline] | 200 ± 60 | competitive inhibition |  |  | 
FC(F)(F)Cn1cc(-c2ccncc2)c(-c2ccc(OCc3ccc4ccccc4n3)cc2)n1 [TP-10] |  |  | 50 |  | 
CC(C)Cn1c(=O)n(C)c(=O)c2[nH]cnc21 [IBMX, 3-isobutyl-1-methylxanthine] | 17 ± 6.6 | competitive inhibition |  | 0.41 | 11
COc1ccc(Cc2nccc3cc(OC)c(OC)cc23)cc1OC [Papaverine, papaverine hydrochloride] |  | competitive inhibition |  |  | 0.095
